# Assay results published in patent US20200330655A1, “DELIVERY OF NITRIC OXIDE-RELEASING PHOSPHOLIPIDS, LIPOSOMES, AND HIGH DENSITY LIPOPROTEIN-LIKE NANOPARTICLES (HDL NPS) BY DRUG ELUTING STENTS AND INTRA-ARTERIAL INJECTION” (Northwestern University, priority 2016, published 2020).
# How the values were obtained:
# [1] = system: porcine coronary injury model; settings: drug eluting stent loaded with the NO donor; cited from earlier work
# [2] = SNO DPPTE exposure to light and/or room temperature; type: physicochemical; settings: FIG. 17
stability on exposure to light and/or room temperature [2],Substance,neointimal hyperplasia and restenosis [1]
,nitroprus side,did not reduce
forms disulfide bonds,"S-nitrosylated 1,2-dipalmitoyl-sn-glycero-3-phosphothioethanol [SNO DPPTE]",
